Numbers after ± are expanded uncertainties. One block for each compound: values may come before it.
Key:
[1] = 298.15 K; 101.33 kPa; Liquid
[2] = excess molar enthalpy (molar enthalpy of mixing); xn = mol fraction of the nth substance listed; conditions: 298.15 K, 101 kPa, Liquid, Flow calorimetry

mass density [1]: 735.99 ± 0.74 kg/m3
Structure (SMILES): COC(C)(C)C [2-methoxy-2-methylpropane]

mass density [1]: 848.1 ± 0.89 kg/m3
Structure (SMILES): CC1CCCO1 (stereo not drawn) [2-methyltetrahydrofuran]

mass density [1]: 668.73 ± 1.4 kg/m3
Structure (SMILES): C=CCCCC [hex-1-ene]

excess molar enthalpy ([2]; x1 = 0.0501): 0.0161 ± 0.000454 kcal/mol
excess molar enthalpy ([2]; x1 = 0.097): 0.0304 ± 0.000669 kcal/mol
excess molar enthalpy ([2]; x1 = 0.1507): 0.0446 ± 0.000884 kcal/mol
excess molar enthalpy ([2]; x1 = 0.1994): 0.055 ± 0.00105 kcal/mol
excess molar enthalpy ([2]; x1 = 0.2501): 0.0649 ± 0.00122 kcal/mol
excess molar enthalpy ([2]; x1 = 0.3003): 0.0729 ± 0.00136 kcal/mol
excess molar enthalpy ([2]; x1 = 0.3499): 0.0788 ± 0.00146 kcal/mol
excess molar enthalpy ([2]; x1 = 0.3999): 0.0834 ± 0.00153 kcal/mol
excess molar enthalpy ([2]; x1 = 0.45): 0.0859 ± 0.00158 kcal/mol
excess molar enthalpy ([2]; x1 = 0.4977): 0.0876 ± 0.0016 kcal/mol
excess molar enthalpy ([2]; x1 = 0.5494): 0.0869 ± 0.0016 kcal/mol
excess molar enthalpy ([2]; x1 = 0.6006): 0.0844 ± 0.00155 kcal/mol
excess molar enthalpy ([2]; x1 = 0.649): 0.0807 ± 0.00148 kcal/mol
excess molar enthalpy ([2]; x1 = 0.6905): 0.0761 ± 0.00141 kcal/mol
excess molar enthalpy ([2]; x1 = 0.7499): 0.0675 ± 0.00127 kcal/mol
excess molar enthalpy ([2]; x1 = 0.7999): 0.0587 ± 0.00112 kcal/mol
excess molar enthalpy ([2]; x1 = 0.8501): 0.0471 ± 0.000932 kcal/mol
excess molar enthalpy ([2]; x1 = 0.8995): 0.0335 ± 0.000717 kcal/mol
excess molar enthalpy ([2]; x1 = 0.95): 0.018 ± 0.000478 kcal/mol
Structure (SMILES): C=CCCCC [hex-1-ene] + C1CCOC1

mass density [1]: 882.09 ± 0.8 kg/m3
Structure (SMILES): C1CCOC1 [tetrahydrofuran]
